Measurements taken from patent US11098010B2 (priority 2017, dated 2021).
Structures can show the parent of a compound that is named as a salt.

test system: HBV rcDNA in HepDE19 cells; assay: HepDE19 assay with bDNA quantitation of HBV rcDNA; assay type: cell-based, hepatitis B virus (HBV); details: HepDE19 cells, inhibition of rcDNA formation, 7 day incubation, top concentration 25 μM; read-out: DE-19 bDNA EC50

| Compound | EC50 [µM] |
| --- | --- |
| COC(=O)NC1c2c(F)ccc(C(=O)Nc3ccc(F)c(Cl)c3)c2CC1(F)F (centres unmarked) [Compound 210, O-methyl, N-((4-((3-chloro-4-fluorophenyl)carbamoyl)-2,2,7-trifluoro-2,3-dihydro-1H-inden-1-yl) carbamate] | 15 |
| COC(=O)NC1(C)CCc2c(C(=O)Nc3ccc(F)c(Cl)c3)ccc(F)c21 (centres unmarked) [Compound 214, O-methyl, N-(4-((3-chloro-4-fluorophenyl)carbamoyl)-7-fluoro-1-methyl-2,3-dihydro-1H-inden-1-yl) carbamate] | 2.6 |
| COC(=O)NC1(C)CCc2c(C(=O)Nc3ccc(F)c(Cl)c3)ccc(F)c21 (centres unmarked) [Compound 217, O-Methyl, N-(4-((3-chloro-4-fluorophenyl)carbamoyl)-7-fluoro-1-methyl-2,3-dihydro-1H-inden-1-yl) carbamate] | 12 |
| COC(=O)NC1(C)CCc2c(C(=O)Nc3ccc(F)c(Cl)c3)ccc(F)c21 (centres unmarked) [Compound 218, O-Methyl, N-(4-((3-chloro-4-fluorophenyl)carbamoyl)-7-fluoro-1-methyl-2,3-dihydro-1H-inden-1-yl) carbamate] | 1.9 |
| CC1(NC(=O)OCc2ccccn2)CCc2c(C(=O)Nc3ccc(F)c(Cl)c3)ccc(F)c21 (centres unmarked) [Compound 219, O-pyridin-2-ylmethyl, N-(4-((3-chloro-4-fluorophenyl)carbamoyl)-7-fluoro-1-methyl-2,3-dihydro-1H-inden-1-yl) carbamate] | 1.5 |
| O=C(NC1c2c(F)ccc(C(=O)Nc3ccc(F)c(Cl)c3)c2CC1(F)F)OCc1ccccn1 (centres unmarked) [Compound 220, O-pyridin-2-ylmethyl, N-(4-((3-chloro-4-fluorophenyl)carbamoyl)-2,2,7-trifluoro-2,3-dihydro-1H-inden-1-yl) carbamate] | 10 |

same assay, conditions: Hepatitis B virus, HepDE19, 168 h, HepDE19 cells, inhibition of rcDNA formation, 7 day incubation, top concentration 25 μM; read-out: DE-19 bDNA EC50

| Compound | EC50 [µM] |
| --- | --- |
| O=C(N[C@H]1CCc2c(C(=O)Nc3ccc(F)c(Cl)c3)ccc(F)c21)O[C@H]1CCOC1 [Compound 181, O—(S)-Tetrahydrofuran-3-yl, N—((S)-4-((3-chloro-4-fluorophenyl)carbamoyl)-7-fluoro-2,3-dihydro-1H-inden-1-yl) carbamate] | 0.15 |
| COCCS(=O)(=O)N[C@H]1CCc2c(C(=O)Nc3ccc(F)c(Cl)c3)ccc(F)c21 [Compound 182, (S)—N-(3-Chloro-4-fluorophenyl)-7-fluoro-1-((2-methoxyethyl)sulfonamido)-2,3-dihydro-1H-indene-4-carboxamide] | 0.59 |
| O=C(Nc1ccc(F)c(Cl)c1)c1ccc(F)c2c1CC[C@@H]2Nc1ncc(O)cn1 [Compound 186, (S)-N-(3-chloro-4-fluorophenyl)-7-fluoro-1-((5-hydroxypyrimidin-2-yl)amino)-2,3-dihydro-1H-indene-4-carboxamide] | 1.6 |
| O=C(N[C@H]1CCc2c(C(=O)Nc3ccc(F)c(Cl)c3)ccc(F)c21)OCc1nc[nH]n1 [Compound 195, O-(1H-1,2,4-Triazol-3-yl)methyl, N—(S)-(4-((3-chloro-4-fluorophenyl)carbamoyl)-7-fluoro-2,3-dihydro-1H-inden-1-yl) carbamate] | 0.1 |
| O=C1CC[C@@H](OC(=O)N[C@H]2CCc3c(C(=O)Nc4ccc(F)c(Cl)c4)ccc(F)c32)CN1 [Compound 199, O—(R)-6-Oxopiperidin-3-yl, N—((S)-4-((3-chloro-4-fluorophenyl)carbamoyl)-7-fluoro-2,3-dihydro-1H-inden-1-yl)carbamate] | 0.25 |
| O=C1CC[C@H](OC(=O)N[C@H]2CCc3c(C(=O)Nc4ccc(F)c(Cl)c4)ccc(F)c32)CN1 [Compound 200, O—(S)-6-Oxopiperidin-3-yl, N—((S)-4-((3-chloro-4-fluorophenyl)carbamoyl)-7-fluoro-2,3-dihydro-1H-inden-1-yl) carbamate] | 0.43 |
| Cc1cc(NC(=O)c2ccc(F)c3c2OCC3NC(=O)OCc2ccccn2)ccc1F (centres unmarked) [Compound 205, O-Pyridin-2-ylmethyl, N-(4-fluoro-7-((4-fluoro-3-methylphenyl)carbamoyl)-2,3-dihydrobenzofuran-3-yl) carbamate] | 3.7 |
| O=C(NC1CC1)N[C@H]1CCc2c(C(=O)Nc3ccc(F)c(Cl)c3)ccc(F)c21 [Compound 209, (S)—N-(3-Chloro-4-fluorophenyl)-1-(3-cyclopropylureido)-7-fluoro-2,3-dihydro-1H-indene-4-carboxamide] | 0.33 |
| O=C(Nc1ccc(F)c(Cl)c1)c1cccc2c1CC[C@@H]2NS(=O)(=O)C1CC1 [Compound 216, (S)—N-(3-chloro-4-fluorophenyl)-1-(cyclopropanesulfonamido)-2,3-dihydro-1H-indene-4-carboxamide] | 0.04 |
| O=C(Nc1ccc(F)c(Cl)c1)c1ccc(F)c2c1CC[C@@H]2NS(=O)(=O)CC1CC1 [Compound 221, (S)—N-(3-Chloro-4-fluorophenyl)-1-((cyclopropylmethyl)sulfonamido)-7-fluoro-2,3-dihydro-1H-indene-4-carboxamide] | 0.21 |
| O=C(Nc1ccc(F)c(Cl)c1)c1ccc(F)c2c1CC[C@@H]2NS(=O)(=O)Cc1ccccc1 [Compound 222, (S)—N-(3-Chloro-4-fluorophenyl)-7-fluoro-1-((phenylmethyl)sulfonamido)-2,3-dihydro-1H-indene-4-carboxamide] | 0.3 |

same assay, conditions: Hepatitis B virus, HepDE19, 168 h, read-out: DE-19 bDNA EC50 (μM), HepDE19 cells, inhibition of rcDNA formation, 7 day incubation, top concentration 25 μM

| Compound | EC50 [µM] |
| --- | --- |
| O=C(N[C@H]1CCc2c(C(=O)Nc3ccc(F)c(Cl)c3)ccc(F)c21)OC[C@@H]1COCCN1 [Compound 180, O—((S)-Morpholin-3-yl)methyl, N—((S)-4-((3-chloro-4-fluorophenyl)carbamoyl)-7-fluoro-2,3-dihydro-1H-inden-1-yl) carbamate Hydrochloride] | 0.2 |
| O=C(Nc1ccc(F)c(Cl)c1)c1ccc(F)c2c1CC[C@@H]2NS(=O)(=O)c1ccccc1 [Compound 183, (S)—N-(3-Chloro-4-fluorophenyl)-7-fluoro-1-(phenylsulfonamido)-2,3-dihydro-1H-indene-4-carboxamide] | 0.65 |
| O=C(Nc1ccc(F)c(Cl)c1)c1ccc(F)c2c1CC[C@@H]2NS(=O)(=O)c1ccccn1 [Compound 184, (S)—N-(3-Chloro-4-fluorophenyl)-7-fluoro-1-(pyridine-2-sulfonamido)-2,3-dihydro-1H-indene-4-carboxamide Hydrochloride] | 0.66 |
| COCC(=O)N1CCC(COC(=O)N[C@H]2CCc3c(C(=O)Nc4ccc(F)c(Cl)c4)ccc(F)c32)CC1 [Compound 185, O-(1-(2-Methoxyacetyl)piperidin-4-yl)methyl, N—(S)-(4-((3-chloro-4-fluorophenyl)carbamoyl)-7-fluoro-2,3-dihydro-1H-inden-1-yl) carbamate] | 0.37 |
| O=C(N[C@H]1CCc2c(C(=O)Nc3ccc(F)c(Cl)c3)ccc(F)c21)OCc1cc[nH]n1 [Compound 193, O-(1H-Pyrazol-3-yl)methyl, N—(S)-(4-((3-chloro-4-fluorophenyl)carbamoyl)-7-fluoro-2,3-dihydro-1H-inden-1-yl) carbamate] | 0.06 |
| Cn1ccc(CNC(=O)N[C@H]2CCc3c(C(=O)Nc4ccc(F)c(Cl)c4)ccc(F)c32)n1 [Compound 194] | 0.16 |
| O=C(Nc1ccc(F)c(Cl)c1)c1ccc(F)c2c1CC[C@@H]2Nc1ccncn1 [Compound 196, (S)—N-(3-Chloro-4-fluorophenyl)-7-fluoro-1-(pyrimidin-4-ylamino)-2,3-dihydro-1H-indene-4-carboxamide] | 0.63 |
| COc1ccc(Cn2ccc3cnc(N[C@H]4CCc5c(C(=O)Nc6ccc(F)c(Cl)c6)ccc(F)c54)nc32)cc1 [Compound 197, (S)—N-(3-Chloro-4-fluorophenyl)-7-fluoro-1-((7-(4-methoxybenzyl)-7H-pyrrolo[2,3-d]pyrimidin-2-yl)amino)-2,3-dihydro-1H-indene-4-carboxamide] | 1.2 |
| O=C1CCC[C@H](COC(=O)N[C@H]2CCc3c(C(=O)Nc4ccc(F)c(Cl)c4)ccc(F)c32)N1 [Compound 198, O—((R)-6-Oxopiperidin-2-yl)methyl, N—((S)-4-((3-chloro-4-fluorophenyl)carbamoyl)-7-fluoro-2,3-dihydro-1H-inden-1-yl) carbamate] | 0.22 |
| O=C1CCC[C@@H](COC(=O)N[C@H]2CCc3c(C(=O)Nc4ccc(F)c(Cl)c4)ccc(F)c32)N1 [Compound 212, O—((S)-6-Oxopiperidin-2-yl)methyl, N—((S)-4-((3-chloro-4-fluorophenyl)carbamoyl)-7-fluoro-2,3-dihydro-1H-inden-1-yl) carbamate] | 0.27 |
| O=C1CC(COC(=O)N[C@H]2CCc3c(C(=O)Nc4ccc(F)c(Cl)c4)ccc(F)c32)N1 (stereo partly drawn) [Compound 213, O-(4-Oxoazetidin-2-yl)methyl, N—((S)-4-((3-chloro-4-fluorophenyl)carbamoyl)-7-fluoro-2,3-dihydro-1H-inden-1-yl) carbamate] | 0.33 |

same assay, conditions: read-out: DE-19 bDNA EC50; HepDE19 cells, inhibition of rcDNA formation, 7 day incubation, top concentration 25 μM

| Compound | EC50 [µM] |
| --- | --- |
| COC(=O)NC1COc2c(C(=O)Nc3ccc(F)c(Cl)c3)ccc(F)c21 (centres unmarked) [Compound 187, O-Methyl, N-(7-((3-chloro-4-fluorophenyl)carbamoyl)-4-fluoro-2,3-dihydrobenzofuran-3-yl) carbamate] | 23 |
| COC(=O)NC1COc2c(C(=O)Nc3ccc(F)c(Cl)c3)ccc(F)c21 (centres unmarked) [Compound 188, O-Methyl, N-(7-((3-chloro-4-fluorophenyl)carbamoyl)-4-fluoro-2,3-dihydrobenzofuran-3-yl) carbamate] | 5.3 |
| COC(=O)NC1COc2c(C(=O)Nc3ccc(F)c(C)c3)ccc(F)c21 (centres unmarked) [Compound 201, O-Methyl, N-(4-fluoro-7-((4-fluoro-3-methylphenyl)carbamoyl)-2,3-dihydrobenzofuran-3-yl) carbamate] | 5.5 |
| COC(=O)NC1COc2c(C(=O)Nc3ccc(F)c(C)c3)ccc(F)c21 (centres unmarked) [Compound 202, O-Methyl, N-(4-fluoro-7-((4-fluoro-3-methylphenyl)carbamoyl)-2,3-dihydrobenzofuran-3-yl) carbamate] | 0.42 |
